Laboratory results: paper PMC5736175, “Nicotinic alpha 7 receptor agonists EVP-6124 and BMS-933043, attenuate scopolamine-induced deficits in visuo-spatial paired associates learning” (PLoS ONE, 2017)
Where “and” joins values, the source holds several entries; their conditions need not be identical. Equal values may be shown once.

Tests used:
[1] = set-up: method as in PMID 25438724; conditions: 20 mg dose (maximal DSST effects), cited from earlier work
5-HT3 receptor = conditions: cited from earlier work
[2] = Plasma concentration in vsPAL subjects immediately after completion of testing (LC-MS/MS); conditions: individual subjects
Method: For all compounds, plasma pharmacokinetic studies were conducted in a separate cohort of cynomolgus monkeys (N = 2–3 subjects per dose) before beginning vsPAL testing to help guide dose selection. Blood samples were obtained with the animals awake and sitting in a primate chair. For most test sessions with BMS-933043 and EVP-6124, plasma samples were also taken from a subset of vsPAL subjects (N = 4–5) immediately after completion of testing (mean (SD) sample collection time = 69.8 (9.8) min post injection).
(§1) Plasma concentrations of test compounds were determined using LC-MS/MS assays. In brief, 50 μL plasma and sample containing compounds was extracted by protein precipitation method with 150 μL acetonitrile containing an internal standard. A 5 μL sample of supernatant was injected into the LC-MS/MS system. Analytes were separated by reversed phase chromatography and detection of each analyte was achieved through selected reaction monitoring mode of mass spectrometry. Samples were quantified by calculated peak area ratio of analyte and internal standard against a calibration curve.

human nAChR α7 [3] = test system: human nAChR α7; set-up: method as in PMID 27467081; conditions: intrinsic activity; HEK293 cells expressing human nAChR α7; cited from earlier work
human nAChR α7 [4] = test system: human nAChR α7; set-up: method as in PMID 20959364, PMID 22085888; conditions: xenopus oocytes expressing human nAChR α7; cited from earlier work
[5] = Plasma pharmacokinetics in satellite animals (LC-MS/MS), 60 min after i.m. dose; conditions: individual subjects
Method: For all compounds, plasma pharmacokinetic studies were conducted in a separate cohort of cynomolgus monkeys (N = 2–3 subjects per dose) before beginning vsPAL testing to help guide dose selection. Blood samples were obtained with the animals awake and sitting in a primate chair.
as §1

- nM total compound in plasma post session ([2]; 0.01 mg/kg i.m., row): 1.526 nM and 1.174 nM and 1.539 nM
- nM total compound in plasma post session ([2]; 0.03 mg/kg i.m.): 4.44 nM and 6.8 nM and 3.56 nM
- nM total compound in plasma post session ([2]; 1.00 mg/kg i.m.): 196 nM and 145 nM and 188 nM and 192 nM
- nM total compound in plasma from satellite animals, 60 min ([5]; 0.03 mg/kg i.m.): 4.1 nM and 3.5 nM
- nM total compound in plasma from satellite animals, 60 min ([5]; 0.10 mg/kg i.m.): 9.5 nM
- nM total compound in plasma from satellite animals, 60 min ([5]; 0.30 mg/kg i.m.): 39.6 nM
- nM total compound in plasma from satellite animals, 60 min ([5]; 1.00 mg/kg i.m.): 103.0 nM
Compound: Cl.O=C(N[C@H]1CN2CCC1CC2)c1cc2cccc(Cl)c2s1 [EVP-6124, (R)-7-chloro-N-(quinuclidin-3-yl)benzo[b]thiophene-2-carboxamide HCl]
- plasma Cmax [1]: 10.4 ng/mL
- Cmax ([1]; read-out: plasma Cmax): 32 nM
- 5-HT3 receptor antagonism (5-HT3 receptor): potent 5-HT3 receptor antagonists
- nM total compound in plasma post session ([2]; 0.003 mg/kg i.m.): 0.5 nM and 1.4 nM and 1.6 nM and 1.1 nM and 0.496 nM
- nM total compound in plasma post session ([2]; 0.10 mg/kg i.m.): 14.8 nM and 14.9 nM and 11.8 nM and 10.9 nM
- nM total compound in plasma post session ([2]; 0.30 mg/kg i.m.): 76.7 nM and 38.4 nM and 48.3 nM and 47.3 nM
- net charge relative to acetylcholine (human nAChR α7 [3]): 136%
- peak current response relative to acetylcholine (human nAChR α7 [3]): 32%
- maximal peak current, % of the acetylcholine response (human nAChR α7 [4]): 80%
